From ChEMBL document CHEMBL4392851, “Synthesis and structure-activity relationships for new 6-fluoroquinoline derivatives with antiplasmodial activity” (Bioorg Med Chem, 2019) come the findings set out here.

Structures are written as SMILES.

Series [1] is described as follows: Effective permeability by PAMPA. In kind it is ADME. The note with it: read-out: Peff.
In the next series the test system is L6. Briefly: Cytotoxicity in rat L6 cells assessed as reduction in cell viability incubated for 72 hrs by alamar blue assay. The note with it: L6, 72 h. In kind it is cell-based. On the technique in general: Alamar Blue is a resazurin reagent that responds to reducing activity.
In series [2] the test system is Plasmodium falciparum. In words: Antiplasmodial activity against chloroquine-sensitive Plasmodium falciparum NF54 erythrocytic stages incubated for 48 hrs by [3H]-hypoxanthine incorporation assay. In kind it is functional, organism-based.
Series [3] can be described thus: Selectivity index, ratio of IC50 for rat L6 cells to IC50 for chloroquine-sensitive Plasmodium falciparum NF54 erythrocytic stages. In kind it is toxicity. Conditions: read-out: Ratio IC50.
Series [4] in a line: Selectivity index, ratio of IC50 for rat L6 cells to IC50 for chloroquine and pyrimethamine resistant Plasmodium falciparum K1. In kind it is toxicity. Conditions: read-out: Ratio IC50.
Series [5] relates to Plasmodium falciparum. In words: Antiplasmodial activity against chloroquine and pyrimethamine resistant Plasmodium falciparum K1 erythrocytic stages incubated for 48 hrs by [3H]-hypoxanthine incorporation assay. In kind it is functional, organism-based.
Series [6] has as its system Plasmodium berghei. Briefly: Antiplasmodial activity against GFP-transfected Plasmodium berghei ANKA infected in NMRI mouse assessed as reduction in parasitaemia at 50 mg/kg/day, ip for consecutive 4 days (4, 24, 48 and 72 hrs post infection) and measured up to 20 days after infection relative to untreated control. In kind it is functional. The arrangement: scale not given: the % may be the effect or the level left.

Series [7] relates to Plasmodium berghei.
Description: Antiplasmodial activity against GFP-transfected Plasmodium berghei ANKA infected in NMRI mouse assessed as mean survival days at 50 mg/kg/day, ip for consecutive 4 days (4, 24, 48 and 72 hrs post infection) and measured up to 20 days after infection (Rvb = 6 to 7 days)

Take `CCOC(=O)N1CCC(NC(=O)c2cc(-c3ccc(CN4CCOCC4)cc3)nc3ccc(F)cc23)CC1`: the Papp in series [1] was 0.19 ×10⁻⁶ cm/s. The IC50 in the series with L6 (read-out: IC50) is 90.5 µM; in the series on Plasmodium falciparum [2], 7.13 µM. The selectivity ratio in series [3] was 12.7.

In the case of `CCCN1CCN(Cc2cc(-c3ccc(CN4CCOCC4)cc3)nc3ccc(F)cc23)CC1`, the Papp in series [1] worked out at 9.26 ×10⁻⁶ cm/s. For the same compound, the IC50 worked out at 14.9 µM with L6 (read-out: IC50) and 1.94 µM in the series on Plasmodium falciparum [2]. The selectivity ratio in series [3] was 7.67.

With `CC(C)(C)OC(=O)N1CCN(CC(=O)Nc2cc(-c3ccc(CN4CCOCC4)cc3)nc3ccc(F)cc23)CC1`, the results for the IC50 in the series with L6 (read-out: IC50), in the series with Plasmodium falciparum [2] and in the series on Plasmodium falciparum [5] were 89.2 µM, 7.53 µM and 3.5 µM, respectively. The selectivity ratio in series [4] was found to be 25.5; in series [3], 11.8.

On to `CC(C)(C)C(=O)N1CCN(CC(=O)Nc2cc(-c3ccc(CN4CCOCC4)cc3)nc3ccc(F)cc23)CC1`, for which the IC50 in the series on L6 (read-out: IC50) worked out at 74.8 µM; in the series on Plasmodium falciparum [2], 9.57 µM; in the series with Plasmodium falciparum [5], 4.91 µM. Also, the figures for the selectivity ratio in series [4] and in series [3] were 15.2 and 7.82, respectively.

In the case of `CN1CCN(Cc2ccc(-c3cc(NC(=O)CCN4CCCC4)c4cc(F)ccc4n3)cc2)CC1`, the Activity with Plasmodium berghei [6] was determined as 99.6%. Also, the MSD with Plasmodium berghei [7] came to 16 days. Also, the IC50 in the series with L6 (read-out: IC50) was found to be 15.6 µM; in the series on Plasmodium falciparum [2], 0.002 µM; in the series on Plasmodium falciparum [5], 0.0029 µM. The selectivity ratio was found to be 5370 in series [4] and 7780 in series [3].

As to `COc1cc([C@@H]2c3cc4c(cc3[C@H](O)[C@H]3COC(=O)[C@H]23)OCO4)cc(OC)c1OC` [PODOFILOX], the IC50 in the series with L6 was found to be 0.012 µM.

With `O=C(c1cc(-c2ccc(CN3CCOCC3)cc2)nc2ccc(F)cc12)N1CCC(O)CC1`, the Papp in series [1] turned out to be 3.67 ×10⁻⁶ cm/s. For the same compound, the IC50 came to 101 µM with L6 (read-out: IC50) and 64 µM in the series with Plasmodium falciparum [2]. Moreover, the selectivity ratio in series [3] is 1.57.

With `O=C(NCCc1ccccn1)c1cc(-c2ccc(CN3CCOCC3)cc2)nc2ccc(F)cc12`, in series [1], the Papp is 9.35 ×10⁻⁶ cm/s. Moreover, the IC50 is 53.5 µM in the series with L6 (read-out: IC50) and 14.9 µM with Plasmodium falciparum [2]. In series [3], the selectivity ratio is 3.6.

Turning to `CC(C)(C)OC(=O)N1CCN(CCC(=O)Nc2cc(-c3ccc(CN4CCOCC4)cc3)nc3ccc(F)cc23)CC1`, the IC50 in the series on L6 (read-out: IC50) is 56.2 µM; with Plasmodium falciparum [2], 0.26 µM; in the series on Plasmodium falciparum [5], 0.3 µM. The selectivity ratio in series [4] worked out at 187; in series [3], 216.

For `CC(NC(=O)c1cc(-c2ccc(CN3CCOCC3)cc2)nc2ccc(F)cc12)c1ccccc1` (racemic), the IC50 was 72.4 µM in the series with L6 (read-out: IC50) and 5.6 µM with Plasmodium falciparum [2]. For the same compound, the selectivity ratio in series [3] worked out at 12.9.

`CC(C)(C)OC(=O)N1CCN(CCNCc2cc(-c3ccc(CN4CCOCC4)cc3)nc3ccc(F)cc23)CC1`: the Papp in series [1] worked out at 4.57 ×10⁻⁶ cm/s. Besides, the IC50 in the series on L6 (read-out: IC50) was 19.8 µM; in the series on Plasmodium falciparum [2] it was 0.018 µM; in the series on Plasmodium falciparum [5] it was 0.041 µM. Besides, the selectivity ratio in series [4] came out at 484; in series [3], 1100.

For `C[C@@H]1CC[C@H]2[C@@H](C)C(=O)O[C@@H]3O[C@@]4(C)CC[C@@H]1[C@]32OO4` [ARTEMISININ], the selectivity ratio in series [4] is 70400. This compound also came in with a 50% inhibitory concentration (IC50) in the series on Plasmodium falciparum [5] of 0.0064 µM.

For the compound `CC(C)(C)N1CCN(CCNC(=O)c2cc(-c3ccc(CN4CCOCC4)cc3)nc3ccc(F)cc23)CC1`, the Papp in series [1] is 2.09 ×10⁻⁶ cm/s. The IC50 in the series with L6 (read-out: IC50) stood at 100 µM; in the series on Plasmodium falciparum [2], 3.11 µM. The selectivity ratio in series [3] came to 32.1.

In the case of `O=C(NCC(F)(F)F)c1cc(-c2ccc(CN3CCOCC3)cc2)nc2ccc(F)cc12`, the IC50 in the series with L6 (read-out: IC50) stood at 98.9 µM; with Plasmodium falciparum [2], 8.78 µM. In series [3], the selectivity ratio came to 11.3.

In the case of `O=C(CCN1CCCC1)Nc1cc(-c2ccc(CN3CCOCC3)cc2)nc2ccc(F)cc12`, the Activity in the series with Plasmodium berghei [6] was 33.9%. The same compound registered an MSD in the series on Plasmodium berghei [7] of 4 days. For the same compound, the Papp in series [1] came to 10.1 ×10⁻⁶ cm/s. Besides, the concentration for half-maximal inhibition (IC50) with L6 (read-out: IC50) turned out to be 123 µM; in the series on Plasmodium falciparum [2] it was 0.004 µM; with Plasmodium falciparum [5], 0.011 µM. The values for the selectivity ratio in series [4] and in series [3] were 11200 and 30800, respectively.

For the compound `O=C(c1cc(-c2ccc(CN3CCOCC3)cc2)nc2ccc(F)cc12)N1CCCCC1`, the figures for the IC50 in the series on L6 (read-out: IC50) and in the series with Plasmodium falciparum [2] were 102 µM and 37.7 µM, respectively. The selectivity ratio in series [3] turned out to be 2.69.

As for `Fc1ccc2nc(-c3ccc(CN4CCOCC4)cc3)cc(CNCCN3CCCC3)c2c1`, the Activity with Plasmodium berghei [6] was found to be 99.4%. This compound displayed an MSD with Plasmodium berghei [7] of 10 days. In series [1], the Papp was 4.55 ×10⁻⁶ cm/s. Besides, the IC50 was determined as 53.8 µM in the series with L6 (read-out: IC50), 0.0011 µM with Plasmodium falciparum [2] and 0.0011 µM with Plasmodium falciparum [5]. For the same compound, the selectivity ratio in series [4] and in series [3] was 48900 throughout.

In the case of `O=C(CN1CCCC1)Nc1cc(-c2ccc(CN3CCOCC3)cc2)nc2ccc(F)cc12`, the IC50 was 56.8 µM in the series on L6 (read-out: IC50), 1.04 µM with Plasmodium falciparum [2] and 0.82 µM in the series on Plasmodium falciparum [5]. In addition, the values for the selectivity ratio in series [4] and in series [3] were 69.3 and 54.6, respectively.

Take `O=C(NC1CCNCC1)c1cc(-c2ccc(CN3CCOCC3)cc2)nc2ccc(F)cc12`: the IC50 in the series with L6 (read-out: IC50) is 69.2 µM; in the series on Plasmodium falciparum [2] it was 0.99 µM. In addition, the selectivity ratio in series [3] was determined as 69.9.

For the compound `O=C(NCCc1ccccc1)c1cc(-c2ccc(CN3CCOCC3)cc2)nc2ccc(F)cc12`, the IC50 worked out at 16.5 µM in the series with L6 (read-out: IC50) and 4.62 µM in the series with Plasmodium falciparum [2]. Further, the selectivity ratio in series [3] was 3.57.

For the compound `CC(C)(C)C(=O)N1CCN(CCC(=O)Nc2cc(-c3ccc(CN4CCOCC4)cc3)nc3ccc(F)cc23)CC1`, the IC50 with L6 (read-out: IC50) came out at 44.5 µM; in the series with Plasmodium falciparum [2], 0.53 µM; in the series on Plasmodium falciparum [5], 0.36 µM. Further, the figures for the selectivity ratio in series [4] and in series [3] were 124 and 83.9, respectively.

With `Nc1cc(-c2ccc(CN3CCOCC3)cc2)nc2ccc(F)cc12`, the IC50 came out at 21.5 µM in the series on L6 (read-out: IC50), 0.23 µM in the series with Plasmodium falciparum [2] and 0.39 µM with Plasmodium falciparum [5]. In addition, the selectivity ratio in series [4] was found to be 55; in series [3] it was 93.3.

Turning to `CCN(CC)CCCC(C)Nc1ccnc2cc(Cl)ccc12` (stereo not given) [CHLOROQUINE], in the series on Plasmodium berghei [6], the Activity stood at 99.6%. The same compound yielded an MSD in the series on Plasmodium berghei [7] of 20 days.

As to `CC(C)(C)C(=O)N1CCN(CCNC(=O)c2cc(-c3ccc(CN4CCOCC4)cc3)nc3ccc(F)cc23)CC1`, the Activity in the series with Plasmodium berghei [6] is 25.2%. In the series on Plasmodium berghei [7], this compound returned an MSD of 4 days. The Papp in series [1] was 6.11 ×10⁻⁶ cm/s. In addition, the results for the concentration for half-maximal inhibition (IC50) in the series on L6 (read-out: IC50) and in the series on Plasmodium falciparum [2] were 80 µM and 0.005 µM, respectively. Moreover, the selectivity ratio in series [3] was 16000.

Consider `CCC(=O)N1CCN(C(=O)c2cc(-c3ccc(CN4CCOCC4)cc3)nc3ccc(F)cc23)CC1`, for which the Papp in series [1] turned out to be 5.53 ×10⁻⁶ cm/s. Moreover, the IC50 stood at 92.4 µM with L6 (read-out: IC50) and 7.38 µM with Plasmodium falciparum [2]. In addition, the selectivity ratio in series [3] turned out to be 12.6.

Take `O=C(NCc1ccccc1)c1cc(-c2ccc(CN3CCOCC3)cc2)nc2ccc(F)cc12`: the figures for the IC50 in the series on L6 (read-out: IC50) and in the series on Plasmodium falciparum [2] were 103 µM and 5.99 µM, respectively. In series [3], the selectivity ratio was 17.2.

On to `CCC(=O)N1CCN(Cc2cc(-c3ccc(CN4CCOCC4)cc3)nc3ccc(F)cc23)CC1`, for which the Papp in series [1] was 7.15 ×10⁻⁶ cm/s. In addition, the results for the concentration for half-maximal inhibition (IC50) with L6 (read-out: IC50) and in the series on Plasmodium falciparum [2] were 38.6 µM and 10.1 µM, respectively. In addition, the selectivity ratio in series [3] came to 3.83.

As to `CN1CCN(CCC(=O)Nc2cc(-c3ccc(CN4CCOCC4)cc3)nc3ccc(F)cc23)CC1`, the IC50 with L6 (read-out: IC50) was found to be 31.6 µM; in the series on Plasmodium falciparum [2], 0.61 µM. Further, the selectivity ratio in series [3] was determined as 51.8.

For the compound `Fc1ccc2nc(-c3ccc(CN4CCOCC4)cc3)cc(CNCCN3CCN(c4ccccc4)CC3)c2c1`, in series [1], the Papp amounted to 2.39 ×10⁻⁶ cm/s. For the same compound, the IC50 in the series with L6 (read-out: IC50) turned out to be 14.6 µM; with Plasmodium falciparum [2] it was 0.02 µM; with Plasmodium falciparum [5], 0.037 µM. For the same compound, the figures for the selectivity ratio in series [4] and in series [3] were 396 and 732, respectively.

For orientation: IC50 means the concentration needed to halve the response being measured.
